Columns and labels:
OF1 mice = assay: Murine maximal electroshock test (MES Test); format: in vivo; conditions: for MES-Test (1 h, po) protection @50: percentage of protected mice (5 per condition) @50, p.o.; for MES-Test (1 h, po) protection @25: percentage of protected mice (5 per condition) @25, p.o.
Protocol: (§1) Compounds of the invention were tested in OF1 mice using the maximal electroshock test (MES Test) described in detail by Schmutz et al., Naunyn-Schmiedeberg's Arch Pharmacol 1990, 342, 61-66. Briefly, generalized tonic-clonic convulsions of the hind extremities were induced by passing electrical current through temporal electrodes (50 Hz, 18 mA, 0.2s). […] 30 mg/kg carbamazepine was used as a positive control; mice were classified as protected by a compound if the duration of the seizure lasted only 3 second or less. Five mice were used for each treatment condition and the percentage of protected mice was used as readout (i.e. a compound could give 0%, 20%, 40%, 60%, 80% or 100% protection). Compounds of the invention were given at a dose of 50 mg/kg, p.o., 1 hour prior to induction of convulsions (i.e. “pre-treatment time -1 h”). ED50 values (ED: effective dose) were calculated using GraphPad Prism, v4.02. 15 s after shock administration, mouse blood was collected for determination of compounds' blood exposure.

mouse = assay: Oral bioavailability: audiogenic mouse test and/or MES test; format: in vivo; conditions: oral administration
Protocol: The oral bioavailability was tested using the audiogenic mouse test (Audiogenic seizures, R. L. Collins; Chapter 14, pages: 347-372. In: Experimental Models of Epilepsy; By: Pupura, Penry, Tower, Woodbury, Walter, Raven Press, New York, 1972. Standard Book Number: 0-911216-26-X) and/or the MES test.
as §1

Row | Structure (SMILES) | MES-Test (1 h, po) protection @50 (OF1 mice; 1 h) [% @50] | In vivo orally active (mouse) | further results
1 | CS(=O)(=O)Nn1c(=O)[nH]c2cc(C(F)(F)F)c(C3CCCO3)cc2c1=O [B-2 (S), N-[2,4-Dioxo-6-(tetrahydro-furan-2-yl)-7-trifluoromethyl-1,4-dihydro-2H-quinazolin-3-yl]-methanesulfonamide] | – | – | MES-Test (1 h, po) ED50 (OF1 mice; p.o., pre-treatment time 1 h, protected = seizure duration 3 s or less): 33.2 mg/kg
2 | Cn1nncc1-c1cc2c(=O)n(NS(C)(=O)=O)c(=O)[nH]c2cc1C(F)(F)F [Comparative, N-(6-(1-methyl-1H-1,2,3-triazol-5-yl)-2,4-dioxo-7-trifluoromethyl-1,4-dihydro-2H-quinazolin-3-yl]-methanesulfonamide, reference compound] | 0 | No | –
3 | CS(=O)(=O)Nn1c(=O)[nH]c2cc(C(F)(F)F)c(C3CCOC3)cc2c1=O (stereo not drawn) [Compound B-3, N-[2,4-Dioxo-6-(tetrahydro-furan-3-yl)-7-trifluoromethyl-1,4-dihydro-2H-quinazolin-3-yl]-methanesulfonamide] | – | Yes | MES-Test (1 h, po) protection @25 (OF1 mice; 1 h): 20% @25^3
4 | COCCn1nccc1-c1cc2c(=O)n(NS(C)(=O)=O)c(=O)[nH]c2cc1C(C)C [Compound C-1, N-{7-Isopropyl-6-[2-(2-methoxy-ethyl)-2H-pyrazol-3-yl]-2,4-dioxo-1,4-dihydro-2H-quinazolin-3-yl}-methanesulfonamide] | – | yes | MES-Test (1 h, po) protection @25 (OF1 mice; 1 h): 40% @25
5 | CC(C)n1nccc1-c1cc2c(=O)n(NS(C)(=O)=O)c(=O)[nH]c2cc1CF [Compound C-3, N-[7-Fluoromethyl-6-(2-isopropyl-2H-pyrazol-3-yl)-2,4-dioxo-1,4-dihydro-2H-quinazolin-3-yl]-methanesulfonamide] | – | Yes | ED50 (OF1 mice; Mus musculus, po, pre-treatment time 1 h, protected = seizure duration 3 s or less): 13.5 mg/kg
6 | CCc1cc2[nH]c(=O)n(NS(C)(=O)=O)c(=O)c2cc1-c1ccnn1C(C)C [Compound C-6, N-[7-Ethyl-6-(2-isopropyl-2H-pyrazol-3-yl)-2,4-dioxo-1,4-dihydro-2H-quinazolin-3-yl]-methanesulfonamide] | 20 | yes | –
7 | CC(C)c1cc2[nH]c(=O)n(NS(C)(=O)=O)c(=O)c2cc1-c1ccnn1C(C)C [Compound C-8, N-[7-Isopropyl-6-(2-isopropyl-2H-pyrazol-3-yl)-2,4-dioxo-1,4-dihydro-2H-quinazolin-3-yl]-methanesulfonamide] | 40 | yes | –
8 | Cn1nccc1-c1cc2c(=O)n(NS(C)(=O)=O)c(=O)[nH]c2cc1C(C)(F)F [Compound C-15, N-[7-(1,1-difluoro-ethyl)-6-(2-methyl-2H-pyrazol-3-yl)-2,4-dioxo-1,4-dihydro-2H-quinazolin-3-yl]-methanesulfonamide] | – | Yes | MES-Test (1 h, po) protection @20 (OF1 mice; percentage of protected mice (5 per condition) @20, p.o., 1 h): 80% @20

From patent publication US20130096145A1, “Use of 1H-quinazoline-2,4-diones” (Novartis AG, priority 2010, published 2013)
